Laboratory results: US8637252B2, “Methods and compositions for determining altered susceptibility of HIV-1 to anti-HIV drugs” (Monogram Biosciences, Inc., priority 2011, dated 2014)

Assays:
[1] = system: HIV-1 (PRRT-RHIN segment of patient sample 62); assay: phenotypic drug resistance test, PRRT-RHIN amplicon of sample 62; type: cell-based
Excerpt: (§1) Patient-derived segment(s) corresponding to the entire pol gene, encoding HIV protease, reverse transcriptase (including RNAse H), and integrase (hereinafter “POL”), the portion of pol encoding amino acids 1-305 of reverse transcriptase (hereinafter “PR-RT”), the portion of pol encoding amino acids 319-440 of reverse transcriptase (including RNAse H), and integrase (hereinafter “RHIN”), were amplified by the reverse transcription-polymerase chain reaction method (RT-PCR) using viral RNA isolated from viral particles present in the plasma or serum of HIV-infected individuals as described below. The portion of pol encoding protease, amino acids 1-531 of reverse transcriptase (including RNase H) (hereinafter “PRRT-RH”), or the portion of pol encoding protease, reverse transcriptase (including RNAse H) and integrase (hereinafter “PRRT-RHIN”), were assembled from amplicons described above by standard recombinant DNA techniques involving a KpnI restriction site at amino acid 400 or a Pin A1 site at amino acid 315.
(§2) Drug resistance tests performed with test vectors were carried out using packaging host and target host cells consisting of the human embryonic kidney cell line 293.
(§3) Resistance tests were carried out with the RTV libraries by using viral particles comprising the RTV libraries to infect a host cell in which the expression of the indicator gene is measured. The amount of indicator gene (luciferase) activity detected in infected cells is used as a direct measure of “infectivity,” i.e., the ability of the virus to complete a single round of replication. Thus, drug resistance or sensitivity can be determined by plotting the amount of luciferase activity produced by patient derived viruses in the presence of varying concentrations of the antiviral drug. By identifying the concentration of drug at which luciferase activity is half-maximum, the IC50 of the virus from which patient-derived segment(s) were obtained for the antiretroviral agent can be determined. […]

[2] = system: HIV-1 (PRRT-RH segment of patient sample 62); assay: phenotypic drug resistance test, PRRT-RH amplicon of sample 62; type: cell-based
Excerpt: as §1, §2, §3

O=C1Nc2ccc(Cl)cc2[C@@](C#CC2CC2)(C(F)(F)F)O1 [EFV, efavirenz]
Fold Change in IC50, PRRT-RHIN amplicon [1]: 202.00 fold
Fold Change in IC50, PRRT-RH amplicon [2]: 276.90 fold

Cc1ccnc2c1NC(=O)c1cccnc1N2C1CC1 [NVP, nevirapine]
Fold Change in IC50, PRRT-RHIN amplicon [1]: 400.00 fold
Fold Change in IC50, PRRT-RH amplicon [2]: 400.00 fold

CC(C)Nc1cccnc1N1CCN(C(=O)c2cc3cc(NS(C)(=O)=O)ccc3[nH]2)CC1 [DLV, delavirdine]
Fold Change in IC50, PRRT-RHIN amplicon [1]: 140.00 fold
Fold Change in IC50, PRRT-RH amplicon [2]: 250.00 fold
